Experimental data taken from US20210309631A1, “SALT OF CYCLOHEXANE DERIVATIVE” (priority 2018, published 2021).
Like-named read-outs stand apart in the source and are kept apart here.

What was measured:
[1] = Crystal form stability on heating (XRPD before and after heating); type: physicochemical
[2] = In vivo individual difference analysis: individual plasma concentration versus time in rats (Example 8); design: species or system SD rats; conditions: intragastric 1 mg/kg; for Plasma Concentrations of Compound of Formula I: listed as Hydrochloride Salt of Compound of Formula I
Method: Compound of Formula I and salts thereof (sulfate, hydrochloride salt, phosphate, maleate), supplied by Shanghai Jingxin Biopharmaceutical Co., Ltd. • Strain: SD rats; Gender: male; Body weight: about 250 grams; Source: shanghai Jiesijie Experimental Animal Co., Ltd Route: single intragastric administration; Capacity: measured in 10 mL/kg body weight Preparation: weighing appropriate amount of the free base or salt of the compound of Formula I, adding a small amount of 0.5% CMC-Na to grind, adding 0.5% CMC-Na to the volume. The concentration is measured as the base. 20 SD rats were divided into 5 groups with 4 rats in each group, fasted for 12 h and drank freely before administration. […] The blood was anticoagulated with 1% heparin, the plasma was separated by 8000 rpm centrifugation for 4 min and stored at -40° C. for testing. LC-MS/MS Method. Pharmacokinetic parameters after administration in rats were calculated using a non-compartmental model of DAS 2.0 software.

[3] = Hygroscopicity (DVS) experiment, 25° C./80% relative humidity; type: physicochemical; conditions: for Hygroscopicity / Vapor sorption: 25° C./80% relative humidity; for hygroscopicity (summary in words): within one week
Method: Dynamic vapor sorption curves were collected on a DVS Intrinsic by SMS (Surface Measurement Systems).
20 mg sample of the crystal forms of the Examples and Comparative Examples are placed in the environment of 25° C./80% relative humidity for a dynamic vapor sorption (DVS) test, and the test results […] are shown in Table 5.

[4] = Plasma pharmacokinetics in SD rats after single intragastric administration (Example 7); type: in vivo; conditions: intragastric 1 mg/kg; for MRT inf: read-out: MRT0-∞
Method: The in vivo absorption process and characteristics of the free base and four salts thereof (sulfate, hydrochloride salt, phosphate, maleate) of compound (I) in rats were studied. The pharmacokinetics of a single intragastric administration of 1 mg/kg of a compound of Formula I and four salts thereof (calculated by free base concentration in salt form) were studied in SD rats.
SD rats were given a single intragastric administration of 1 mg/kg free base of Example 1 and four salts thereof (including hydrochloride salt from Example 2, sulfate from Example 3, phosphate from Example 4 and maleate from Example 5). There were 4 male rats in each group. The concentration of the compound of Formula I in plasma was determined, and the pharmacokinetic parameters were calculated according to the concentration-time curve.

solubility in water = type: physicochemical
[5] = DVS, listed as Example 2 hydrochloride salt
[6] = male, SD, rat, plasma, po, 1 mg/kg, Mean ± SD, non-compartmental model
[7] = male, SD, rat, plasma, po, 1 mg/kg, Mean ± SD, non-compartmental model, read-out: Tmax
[8] = DVS, listed as Example 4 phosphate
[9] = Mean ± SD, non-compartmental model, listed as Phosphate

CN(C)C(=O)N[C@H]1CC[C@H](CCN2CCN(c3cccc4ccsc34)CC2)CC1 [Comparative Example 12, N′-[trans-4-[2-[7-(benzo[b]thiophene)-7-piperazinyl]ethyl]cyclohexyl]-N,N-dimethylurea]
stability of the crystal form ([1]; compared with maleate Form A, after being heated): lower than that of maleate Form A
crystal form after heating ([1]; heated to 150° C. and cooled to room temperature, XRPD): turned to maleate Form A

CN(C)C(=O)N[C@H]1CC[C@H](CCN2CCN(c3cccc4ccsc34)CC2)CC1 [Example 2, N′-[trans-4-[2-[7-(benzo[b]thiophene)-7-piperazinyl]ethyl]cyclohexyl]-N,N-dimethylurea]
Plasma Concentrations of Compound of Formula I ([2]; 0.333 h after administration, Mean ± SD): 29.4 ± 16.4 ng/mL
Plasma Concentrations of Compound of Formula I ([2]; 0.333 h after administration, rat 1♂): 37.6 ng/mL
Plasma Concentrations of Compound of Formula I ([2]; 0.333 h after administration, rat 2♂): 25.9 ng/mL
Plasma Concentrations of Compound of Formula I ([2]; 0.333 h after administration, rat 3♂): 8.18 ng/mL
Plasma Concentrations of Compound of Formula I ([2]; 0.333 h after administration, rat 4♂): 45.9 ng/mL
Plasma Concentrations of Compound of Formula I ([2]; 0.5 h after administration, Mean ± SD): 35.1 ± 15.6 ng/mL
Plasma Concentrations of Compound of Formula I ([2]; 0.5 h after administration, rat 1♂): 48.3 ng/mL
Plasma Concentrations of Compound of Formula I ([2]; 0.5 h after administration, rat 2♂): 30.6 ng/mL
Plasma Concentrations of Compound of Formula I ([2]; 0.5 h after administration, rat 3♂): 15.0 ng/mL
Plasma Concentrations of Compound of Formula I ([2]; 0.5 h after administration, rat 4♂): 46.4 ng/mL
Plasma Concentrations of Compound of Formula I ([2]; 1 h after administration, rat 1♂): 32.4 ng/mL
Plasma Concentrations of Compound of Formula I ([2]; 1 h after administration, rat 2♂): 25.3 ng/mL
Plasma Concentrations of Compound of Formula I ([2]; 1 h after administration, rat 3♂): 20.8 ng/mL
Plasma Concentrations of Compound of Formula I ([2]; 1 h after administration, rat 4♂): 42.7 ng/mL
Hygroscopicity [3, 5]: Almost no
Vapor sorption [3, 5]: 0.21%
hygroscopicity (summary in words) ([3]; DVS): almost no hygroscopicity or slight hygroscopicity
AUC [4, 6]: 96.9 ± 29.3 ng·h/mL
AUC(0-inf) [4, 6]: 99.1 ± 28.9 ng·h/mL
Cmax [4, 6]: 36.5 ± 13.1 ng/mL
half-life [4, 6]: 4.72 ± 2.66 h
MRT inf [4, 6]: 4.27 ± 2.2 h
Tmax [4, 7]: 0.625 ± 0.25 h
solubility in water (solubility in water; listed as hydrochloride salt Form B): greater than 4.6 mg/ml

CN(C)C(=O)N[C@H]1CC[C@H](CCN2CCN(c3cccc4ccsc34)CC2)CC1 [Example 4, N′-[trans-4-[2-[7-(benzo[b]thiophene)-7-piperazinyl]ethyl]cyclohexyl]-N,N-dimethylurea]
Hygroscopicity [3, 8]: Slight
Vapor sorption [3, 8]: 0.61%
MRT0-∞ [4, 9]: 3.06 ± 0.434 h
Tmax [4, 9]: 0.833 ± 0.333 h
t1/2 [4, 9]: 3.25 ± 1.23 h
solubility in water (solubility in water; listed as phosphate Form A): greater than 7.6 mg/ml

CN(C)C(=O)N[C@H]1CC[C@H](CCN2CCN(c3cccc4ccsc34)CC2)CC1.O=C(O)/C=C\C(=O)O [Example 5, N′-[trans-4-[2-[7-(benzo[b]thiophene)-7-piperazinyl]ethyl]cyclohexyl]-N,N-dimethylurea]
individual difference of plasma concentration ([2]; compared with other salts): smallest
hygroscopicity compared with other salts ([3]; DVS): less hygroscopic than other salts
Hygroscopicity ([3]; DVS): Almost no
Vapor sorption ([3]; DVS): 0.12%
hygroscopicity (summary in words) ([3]; DVS): almost no hygroscopicity or slight hygroscopicity
The crystal form changes after DVS testing or not ([3]; after DVS testing): No
bioavailability (in words) ([4]; compared with other salts): highly bioavailable
half-life (in words) ([4]; compared with other salts): relatively long half-life
AUC [4, 6]: 124 ± 5.79 ng·h/mL
AUC(0-inf) [4, 6]: 125 ± 7 ng·h/mL
Cmax [4, 6]: 45.4 ± 2.81 ng/mL
half-life [4, 6]: 4.67 ± 2.17 h
MRT inf [4, 6]: 3.07 ± 0.531 h
Tmax [4, 7]: 0.75 ± 0.289 h
solubility (solubility in water): > 2600 µg/mL
